Results: patent publication US6156700A, “3-(1,2-Benzisothiazol- and isoxazol-5-yl)-2,4(1H,3H)-pyrimidinedione or thione and 3-(1,2-benzisothiazol- and isoxazol-5-yl)-4(3H)-pyrimidinone or thione herbicidal agents” (American Cyanmid Company, priority 1998, dated 2000)

What was measured:
[1] = tested on: Velvetleaf, Abutilon theophrasti; assay: Postemergence herbicidal evaluation, ABUTH; assay type: in vivo, Medic.; details: 0.0630 kg/ha
In short: (§1)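 Greenhouse postemergence test. Seedlings about two weeks old sprayed (40 psi) with compound in 50/50 acetone/water, 0.5% TWEEN 20, at rates near 0.0157–0.500 kg/ha; rated 0–9 by eye at 4–5 weeks.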

[2] = tested on: Lambsquarters, Common, Chenopodium album; assay: Postemergence herbicidal evaluation, CHEAL; assay type: in vivo, L.; details: 0.0630 kg/ha
In short: as §1

[3] = tested on: Soybean, Williams, Glycine max; assay: Postemergence herbicidal evaluation, GLXMAW; assay type: in vivo, (L.) Merr. cv Williams; details: 0.0630 kg/ha
In short: as §1

[4] = tested on: Sicklepod, Cassia obtusifolia; assay: Preemergence herbicidal evaluation, CASOB; assay type: in vivo, L.; details: 0.2500 kg/ha
Text: (§2) Results of herbicide evaluation are expressed on a rating scale (0-9). The scale is based upon a visual observation of plant stand, vigor, malformation, size, chlorosis and overall plant appearance as compared with a control.
(§3) The preemergence herbicidal activity of the test compounds of the present invention is exemplified by the following tests in which the seeds of a variety of monocotyledonous and dicotyledonous plants are separately mixed with potting soil and planted on top of approximately one inch of soil in separate pint cups. After planting, the cups are sprayed with the selected aqueous acetone solution containing test compound in sufficient quantity to provide the equivalent of about 0.0156 to 0.500 kg per hectare of test compound per cup. The treated cups are then placed on greenhouse benches, watered and cared for in accordance with conventional greenhouse procedures. From four to five weeks after treatment, the tests are terminated and each cup is examined and rated according to the rating system provided in Example 185.
(§4) The compounds evaluated are reported by compound number given in Example 185.

[5] = tested on: Morningglory, Ivyleaf, Ipomoea hederacea; assay: Postemergence herbicidal evaluation, IPOHE; assay type: in vivo, (L.) Jacq.; details: 0.0630 kg/ha
In short: as §1

[6] = tested on: Galium, Galium aparine; assay: Postemergence herbicidal evaluation, GALAP; assay type: in vivo; details: 0.0630 kg/ha
In short: as §1

[7] = tested on: Corn, Field, Zea mays; assay: Postemergence herbicidal evaluation, ZEAMX; assay type: in vivo, L.; details: 0.0630 kg/ha
In short: as §1

[8] = tested on: Morningglory, Ivyleaf, Ipomoea hederacea; assay: Preemergence herbicidal evaluation, IPOHE; assay type: in vivo, (L.) Jacq.; details: 0.2500 kg/ha
Text: as §2, §3, §4

[9] = tested on: Corn, Field, Zea mays; assay: Preemergence herbicidal evaluation, ZEAMX; assay type: in vivo, L.; details: 0.2500 kg/ha
Text: as §2, §3, §4

[10] = tested on: Rice, Tebonnet, Oryza sativa; assay: Postemergence herbicidal evaluation, ORYSAT; assay type: in vivo, (L.) Tebonnet; details: 0.0630 kg/ha
In short: as §1

[11] = tested on: Wheat, Winter, cv Riband, Triticum aestivum; assay: Postemergence herbicidal evaluation, TRZAWR; assay type: in vivo; details: 0.0630 kg/ha
In short: as §1

[12] = tested on: Ragweed, Common, Ambrosia artemisifolia; assay: Postemergence herbicidal evaluation, AMBEL; assay type: in vivo, L.; details: 0.0630 kg/ha
In short: as §1

[13] = tested on: Ragweed, Common, Ambrosia artemisifolia; assay: Preemergence herbicidal evaluation, AMBEL; assay type: in vivo, L.; details: 0.2500 kg/ha
Text: as §2, §3, §4

[14] = tested on: Barnyardgrass, Echinochloa crus-galli; assay: Preemergence herbicidal evaluation, ECHCG; assay type: in vivo, (L.) Beau; details: 0.2500 kg/ha
Text: as §2, §3, §4

[15] = tested on: Barnyardgrass, Echinochloa crus-galli; assay: Postemergence herbicidal evaluation, ECHCG; assay type: in vivo, (L.) Beau; details: 0.0630 kg/ha
In short: as §1

[16] = tested on: Wheat, Winter, cv Riband, Triticum aestivum; assay: Preemergence herbicidal evaluation, TRZAWR; assay type: in vivo; details: 0.2500 kg/ha
Text: as §2, §3, §4

[17] = tested on: Velvetleaf, Abutilon theophrasti; assay: Preemergence herbicidal evaluation, ABUTH; assay type: in vivo, Medic.; details: 0.2500 kg/ha
Text: as §2, §3, §4

[18] = tested on: Lambsquarters, Common, Chenopodium album; assay: Preemergence herbicidal evaluation, CHEAL; assay type: in vivo, L.; details: 0.2500 kg/ha
Text: as §2, §3, §4

[19] = tested on: Soybean, Williams, Glycine max; assay: Preemergence herbicidal evaluation, GLXMAW; assay type: in vivo, (L.) Merr. cv Williams; details: 0.2500 kg/ha
Text: as §2, §3, §4

[20] = tested on: Rice, Tebonnet, Oryza sativa; assay: Preemergence herbicidal evaluation, ORYSAT; assay type: in vivo, (L.) Tebonnet; details: 0.2500 kg/ha
Text: as §2, §3, §4

[21] = tested on: Galium, Galium aparine; assay: Preemergence herbicidal evaluation, GALAP; assay type: in vivo; details: 0.2500 kg/ha
Text: as §2, §3, §4

[22] = tested on: Foxtail, Green, Setaria viridis; assay: Postemergence herbicidal evaluation, SETVI; assay type: in vivo, (L.) Beau; details: 0.0630 kg/ha
In short: as §1

[23] = tested on: Foxtail, Green, Setaria viridis; assay: Preemergence herbicidal evaluation, SETVI; assay type: in vivo, (L.) Beau; details: 0.2500 kg/ha
Text: as §2, §3, §4

[24] = tested on: Sicklepod, Cassia obtusifolia; assay: Postemergence herbicidal evaluation, CASOB; assay type: in vivo, L.; details: 0.0630 kg/ha
In short: as §1

Row | Structure (SMILES) | herbicide rating (0-9) [1] | herbicide rating (0-9) [2] | herbicide rating (0-9) [3] | herbicide rating (0-9) [4] | herbicide rating (0-9) [5] | herbicide rating (0-9) [6] | herbicide rating (0-9) [7] | herbicide rating (0-9) [8] | herbicide rating (0-9) [9] | herbicide rating (0-9) [10] | herbicide rating (0-9) [11] | herbicide rating (0-9) [12] | herbicide rating (0-9) [13] | herbicide rating (0-9) [14] | herbicide rating (0-9) [15] | herbicide rating (0-9) [16] | herbicide rating (0-9) [17] | herbicide rating (0-9) [18] | herbicide rating (0-9) [19] | herbicide rating (0-9) [20] | other results
1 | COc1c(C)cc(C)cc1-c1nsc2ccc(-n3c(=O)cc(C(F)(F)F)n(C)c3=O)cc12 [Compound 18, 3-[3-(2-Methoxy-3,5-xylyl)-1,2-benzisothiazol-5-yl]-1-methyl-6-(trifluoromethyl)-2,4(1H,3H)-pyrimidinedione] | 9.0 | 9.0 | 4.0 | 4.0 | 9.0 | 5.0 | 5.0 | 4.0 | 3.0 | 2.0 | 2.5 | 6.0 | 9.0 | 5.0 | 4.0 | 0.0 | 9.0 | 9.0 | 2.0 | 0.0 | herbicide rating (0-9) [21]: 1.0; herbicide rating (0-9) [22]: 5.0; herbicide rating (0-9) [23]: 9.0
2 | COc1ccc(C)cc1-c1nsc2ccc(-n3c(=O)cc(C)n(C)c3=O)cc12 [Compound 24, 3-[3-(6-Methoxy-m-tolyl)-1,2-benzisothiazol-5-yl]-1,6-dimethyl-2,4(1H,3H)-pyrimidinedione] | 7.0 | 0.0 | 3.0 | 4.0 | 4.0 | 0.0 | 5.0 | 9.0 | 2.0 | 0.5 | 3.0 | 3.0 | 5.0 | 3.0 | 0.0 | 0.0 | 9.0 | 9.0 | 1.0 | 0.0 | herbicide rating (0-9) [21]: 3.0; herbicide rating (0-9) [22]: 0.0; herbicide rating (0-9) [23]: 5.0
3 | Cn1c(C(F)(F)F)cc(=O)n(-c2ccc3onc(-c4ccccc4)c3c2)c1=O [Compound 25, 1-Methyl-3-(3-phenyl-1,2-benzisoxazol-5-yl)-6-(trifluoromethyl)-2,4 (1H,3H)-pyrimidinedione] | 9.0 | 9.0 | 7.0 | 9.0 | 8.0 | 5.0 | 4.5 | 9.0 | 7.0 | 3.5 | 3.5 | 5.0 | 9.0 | 9.0 | 2.0 | 7.0 | 9.0 | 9.0 | 9.0 | 7.0 | herbicide rating (0-9) [21]: 8.0; herbicide rating (0-9) [22]: 7.0; herbicide rating (0-9) [23]: 9.0
4 | COC(=O)COc1c(C)cc(C)cc1-c1nsc2ccc(-n3c(=O)cc(C(F)(F)F)n(C)c3=O)cc12 [Compound 26, Methyl {{6-{5-[3,6-dihydro-3-methyl-2,6-dioxo-4-(trifluoromethyl)-1(2H)-pyrimidinyl]-1,2-benzisothiazol-3-yl}-2,4-xylyl}oxy}acetate] | 9.0 | 9.0 | 7.5 | 9.0 | 9.0 | 9.0 | 7.0 | 7.0 | 7.0 | 2.0 | 8.0 | 9.0 | 9.0 | 7.0 | 9.0 | 5.0 | 9.0 | 9.0 | 6.0 | 5.0 | herbicide rating (0-9) [24]: 6.0; herbicide rating (0-9) [21]: 4.0; herbicide rating (0-9) [22]: 9.0; herbicide rating (0-9) [23]: 9.0
5 | COC(=O)C(C)Oc1c(C)cc(C)cc1-c1nsc2ccc(-n3c(=O)cc(C(F)(F)F)n(C)c3=O)cc12 (stereo not drawn) [Compound 27, Methyl 2-{{6-{5-[3,6-dihydro-3-methyl-2,6-dioxo-4-(trifluoromethyl)-1(2H)-pyrimidinyl]-1,2-benzisothiazol-3-yl}-2,4-xylyl}oxy}propionate] | 9.0 | 9.0 | 7.0 | 9.0 | 9.0 | 9.0 | 7.0 | 6.0 | 4.0 | 4.5 | 8.5 | 9.0 | 9.0 | 7.0 | 7.0 | 5.0 | 9.0 | 9.0 | 9.0 | 2.0 | herbicide rating (0-9) [24]: 4.0; herbicide rating (0-9) [21]: 2.0; herbicide rating (0-9) [22]: 7.0; herbicide rating (0-9) [23]: 9.0
6 | COC(=O)C(C)Oc1ccc(C(C)C)cc1-c1nsc2ccc(-n3c(=O)cc(C(F)(F)F)n(C)c3=O)cc12 (stereo not drawn) [Compound 30, Methyl 2-{2-{5-[3,6-dihydro-3-methyl-4-(trifluoromethyl)-2,6-dioxo-1(2H)-pyrimidinyl]-1,2-benzisothiazol-3-yl}-4-isopropylphenoxy}propionate] | 9.0 | 9.0 | 7.0 | 9.0 | 9.0 | 5.0 | 9.0 | 9.0 | 7.0 | 7.5 | 7.5 | 9.0 | 9.0 | 7.0 | 9.0 | 7.0 | 9.0 | 9.0 | 6.0 | 6.0 | herbicide rating (0-9) [24]: 9.0; herbicide rating (0-9) [21]: 7.0; herbicide rating (0-9) [22]: 9.0; herbicide rating (0-9) [23]: 9.0
